Measured values taken from patent US20100303936A1, “METHOD OF REDUCING FAT ACCUMULATION AND INDUCING WEIGHT LOSS” (Bionovo, Inc. A Delaware Corporation, priority 2009, published 2010).
“Also recorded” adds a separate entry of the source.

Experiment: Ovariectomized mice on high fat diet (HFD): body weight, abdominal fat, uterus and mammary gland
Format: in vivo
Procedure: To test the effects of the two PEs (3 and 39) in animals, 10 week old ovariectomized C57/B16 female mice were placed on a high fat diet (HFD) for 50 days to increase body weight and abdominal fat. After gaining weight, the mice were treated orally for 6 weeks with the two PEs separately while being kept on HFD. The vehicle-treated (placebo) control mice continued to gain weight (9% weight increase) even after treatment. The E2-treated mice, which served as positive controls lost 20.5% of their weight. […] The abdominal fat weight dropped by 48% or 32% in the PE-treated groups (3, 39, respectively) and 80% in E2-treated mice compared to control. The growth of mammary gland (MG) and uteri was assessed by measuring MG and uterine weights and by analyzing MG morphology in whole-mounts. […] FIG. 4.

[1] = ovariectomized mice on HFD, 42 days

Structure (SMILES): C[C@]12CC[C@@H]3c4ccc(O)cc4CC[C@H]3[C@@H]1CC[C@@H]2O [Extract E2, estradiol]
- body weight lost (ovariectomized C57/B16 female mice on HFD, treated 6 weeks): 20.5%
- abdominal fat weight drop compared to control (ovariectomized mice on HFD, 6 weeks treatment): 80%
- mammary gland morphology (ducts, histology / whole-mounts) [1]: elongation and branching of ducts in mammary tissue; also recorded: induced elongation and branching of mammary ducts
- uterine weight (in words) [1]: induced uterine tissue weight gain; also recorded: induced significant weight gain in the uterus
